Assay results: BindingDB's records for PubMed 1650832 (Pfizer, 1991)

Target: T1, Cysteinyl leukotriene receptor 2 (Cavia porcellus, UniProt Q2NNR4)
T1 sequence (Q2NNR4 whole entry): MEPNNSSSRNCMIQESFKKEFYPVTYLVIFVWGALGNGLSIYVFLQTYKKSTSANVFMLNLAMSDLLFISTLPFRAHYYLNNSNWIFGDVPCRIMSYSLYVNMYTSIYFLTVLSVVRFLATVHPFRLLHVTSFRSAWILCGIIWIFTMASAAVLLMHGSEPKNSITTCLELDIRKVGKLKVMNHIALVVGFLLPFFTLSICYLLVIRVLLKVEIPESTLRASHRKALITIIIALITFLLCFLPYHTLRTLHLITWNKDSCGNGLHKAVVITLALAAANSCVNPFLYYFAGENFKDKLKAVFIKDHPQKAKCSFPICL

Ki [nM]	Compound
0.49	CCCCC/C=C\C\C=C/C=C/C=C/[C@@H](SC[C@H](N)C(=O)NCC(=O)O)[C@@H](O)CCCC(=O)O [5S-hydroxy-6R-(S-cysteinylglycinyl)-7E,9E,11E,14Z-eicosatetraenoic acid]
6.89	COc1cc(C(=O)NS(=O)(=O)c2ccccc2)ccc1Cn1ncc2ccc(NC(=O)OC3CCCC3)cc21
35.5	CCCCC/C=C\C\C=C/C=C/C=C/[C@@H](SC[C@H](N)C(=O)O)[C@@H](O)CCCC(=O)O [(5S-(5R*,6S*(S*),7E,9E,11Z,14Z))-6-((2-Amino-2-carboxyethyl)thio)-5-hydroxy-7,9,11,14-eicosatetraenoic acid]
178	CCCCCC=CCC=CC=CC=CC(SCC(NC(=O)CCC(N)C(=O)O)C(=O)NCC(=O)O)C(O)CCCC(=O)O (centres undefined) [CAS_5283121]
